Measured values published in patent US8871741B2, “Inhibition of TNF-α induced activation of NFKB by pentosan polysulfate” (Icahn School of Medicine at Mount Sinai, priority 2010, dated 2014).

What was measured:
[1] = tested on: MCP-1, RANTES, CXCL-1 mRNA; test: Real-time PCR of chemokine mRNA in renal cortex; format: in vivo, mouse; conditions: PPS treated 22 month-old diabetic mice; P<0.01 vs. DN
Procedure: Total RNA was isolated from renal cortex using a PureYield RNA Midiprep kit (Promega, Madison, Wis.). The preparation was free of DNA contamination and 500 ng of total RNA from each sample was reverse-transcribed as previously described (Zheng F, Striker G E, Esposito C, Lupia E, Striker L J. Kidney Int 1998, 54:1999-2007; Zheng F, et al., Am Pathol 2003, 162:1339-1348). The levels of MCP-1 (monocyte chemoattractant protein-1), CXCL1 (c-x-c motif ligand 1), MIP2 (macrophage inflammatory protein 2), RANTES (regulated on activation, normal T cell expressed and secreted), ICAM-1 ([…] adhesion molecule 1), GRP78 (glucose regulatory protein 78), CHOP, and IL-6 (interleukin 6) mRNA were determined by real-time polymerase chain reaction (PCR). The primers used for the measurement were:
mRNA levels were corrected by the levels of β-actin or GAPDH mRNA. The expression of TNFα mRNA in kidney was determined by both a real time and a regular PCR using the primer of forward, 5′-[…]-3′ (SEQ ID NO: 17), reverse, 5′-[…]-3′ (SEQ ID NO: 18). GAPDH and β-actin mRNA levels were measured in the same sample.

[2] = tested on: phosphorylated NF-κB (p65 (Ser276)); test: Immunostaining for nuclear phosphorylated NF-κB in kidney; format: in vivo, mouse; conditions: PPS treated 22 month-old diabetic kidney
Text: Paraffin sections from non-diabetic and diabetic mice were deparaffinized prior to staining for apoptosis, makers for inflammation such as macrophages (F4/80, 1:100, Caltag Laboratories, Burlingame, Calif.) and phosphorylated NF-κB (p65 (Ser276), 1:25, Cell Signaling Technology, Inc, Danvers, Mass.), markers for oxidative stress, i.e., nitrotyrosine (1:140, Upstate Biotechnology Inc, Billerica, Mass.) and malondialdehyde (MDA, 1:100, Alpha Diagnostic International Inc, San Antonio, Tex.), and markers for endoplasmic reticulum (ER) stress, i.e., phosphorylated pancreatic ER kinase (PERK, 1:5, Santa Cruz Biotechnology, Santa Cruz, Calif.), and phosphorylated eukaryotic initiation factor 2α (eIF2α, 1:50, Stressgen Bioreagents Corp, Norwalk, Conn.).
Stained sections were examined under light microscopy (Zeiss Axioskop, Germany). The cortical area of the kidney was digitized under ×10 objective low power with a Sony 3CCD color video camera and a meta imaging series software (Molecular Devices, Downingtown, Pa.). The area of positively stained tubules and glomeruli was measured and expressed as the percentage of total cortical area. The intensity of the staining was also assessed using the color differentiation program.

[3] = tested on: MCP-1, RANTES, CXCL1, MIP-2, ICAM-1, and iNOS mRNA; test: TNFα induced pro-inflammatory gene expression in proximal tubular cell line, real-time PCR; format: cell-based, mouse; conditions: PPS 200 μg/ml for 1 hour before TNFα 10 ng/ml, RNA 4 hours later
Procedure: A proximal tubular cell line obtained from mice transgenic for SV40 T antigen was grown in DMEM containing 10% FBS. For the measurement of TNFα-stimulated gene expression, 1×10^5 proximal tubular cells were transferred to each well of a 6-well-plate. After placing the cells in 0.1% FBS medium for 24 hours, 10 ng/ml of TNFα was added to test wells. Total RNA was isolated from all wells 4 hours later. MCP-1, RANTES, CXCL1, MIP-2, ICAM-1, and iNOS mRNA levels were determined by real-time PCR as described above and corrected by β-actin mRNA levels. TNFα stimulated MCP-1 and RANTES production and release into the medium was measured in TNFα (10 ng/ml) treated and control cells at 24 hours. The amount of MCP-1 or RANTES in the medium was measured by ELISA (Invitrogen Corporation (Carlsband, Calif.).
To determine the effect of PPS on TNFα induced upregulation of proinflammatory genes, proximal tubular cells were pre-treated with PPS (200 μg/ml) for 1 hour before the addition of TNFα (10 ng/ml). MCP-1, RANTES, CXCL1, MIP-2, ICAM-1, and iNOS mRNA levels were determined 4 hours later by real-time PCR. MCP-1 and RANTES production was also measured.

IκB = test: TNFα stimulated IκB phosphorylation in proximal tubular cells, Western-blot; format: cell-based, mouse; conditions: proximal tubular cells treated with PPS (400 μg/ml, ½ hour) before TNFα 10 ng/ml
Procedure: The activation of NF-κB and mitogen activated protein kinases including p38, JNK (Jun N-terminal kinase), and ERK (extracellular signal regulated kinase) pathways play an essential role in proinflammatory actions of TNFα. Thus, it was examined whether PPS affected the phosphorylation of IκB, ERK, p38, and JNK by TNFα. Proximal tubular cells were allowed to grow to 70% confluency in […] petri-dish. Cell lysates were collected before or 15, 30, 60, and 120 minutes after TNFα treatment (10 ng/ml). Cells in some dishes were pre-incubated with PPS (400 μg/ml) for ½ hour before exposure to TNFα. The levels of phosphorylated IκB, ERK, p38, and JNK were determined by Western-blots. Briefly, equal amounts of protein samples (10-20 μg/lane) were loaded onto SDS-PAGE gels. After electrophoresis, proteins were transferred to nitrocellulose membranes and blotted with antibody against phosphorylated IκB, ERK, p38, or JNK (Cell signaling, Boston, Mass.). After the first analysis, the membranes were stripped to re-probe with antibody against total IκB, ERK, p38 or JNK, and ERK and finally with antibody against β-actin (Cell signaling, Boston, Mass.).

NF-κB = NF-κB DNA binding, gel mobility shift assay (EMSA); format: cell-based, mouse; conditions: proximal tubular cells, PPS 800 μg/ml for ½ hour before TNFα 10 ng/ml, nuclear protein after 1 hour
Procedure: Additionally, NF-κB DNA binding was examined by gel mobility shift assay (EMSA). Briefly, proximal tubular cells were pre-incubated with or without PPS (800 μg/ml) for ½ hour before the addition of TNFα (10 ng/ml). Nuclear protein was extracted from cells 1 hour after treatment. A NF-κB probe was prepared by annealing complementary single-stranded oligonucleotides with 5′-ACTG overhangs (MWG Biotechnologies, Inc.) and were labeled by filling in with [-^32P]dGTP and [-^32P]dCTP using Klenow enzyme. Labeled probes were purified with Nuctrap purification columns (Roche Applied Science). EMSAs were performed using 10^5 cpm of labeled probe and 10 μg of nuclear extracts/reaction. DNA binding complexes were separated by electrophoresis on a 5% polyacrylamide-Tris/glycine-EDTA gel, which was dried and exposed to X-ray film.

With pentosan polysulfate [PPS] the “mRNA levels of MCP-1, RANTES, and CXCL-1 in renal cortices” value [1] was “levels similar to 22 month-old non-diabetic”, the “number of nuclei stained positively for phosphorylated NF-κB (p65 (Ser276))” value [2] was “noticeably reduced” and the “TNFα stimulation of MCP-1, RANTES, CXCL-1, MIP-2, ICAM-1 and iNOS mRNA expression” value [3] was “largely prevented”. The “decrease in the levels of IκB phosphorylation” value (IκB) was 40-60% and the “TNFα-induced increase in NF-κB DNA binding activity” value (NF-κB) was “nearly completely blocked”.
